Test results as given in PMC7838546, “A Thermostable, Modified Cathelicidin-Derived Peptide With Enhanced Membrane-Active Activity Against Salmonella enterica serovar Typhimurium” (Frontiers in Microbiology, 2021).
Read-outs that look alike come from different tables or passages of the source. Ends that are not written are not given here.

What was measured:
[1] = system: S. enterica serovar 4,5,12:i:- H2-089 (foodborne isolate); assay: MIC/MBC, broth microdilution and colony count; assay type: cell-based, Salmonella enterica serovar 4,5,12:i:-; conditions: H2-089, pork intestine, resistant Amp, broth microdilution, 37°C, 24 h
Protocol: (§1) Salmonella enterica serovar Typhimurium ATCC 13311, 24 drug-resistant foodborne and eleven drug-resistant human borne S. enterica serovar Typhimurium and 4,5,12:i:- isolates (Table 1) were used as test microorganisms. They were previously isolated for molecular characterization in 2014 and kindly provided by Dr. Soraya Chaturongakul (Mahidol University, Thailand) ([Huoy et al., 2014]). All bacteria were cultured in Tryptic Soy Broth (TSB) and incubated at 37°C for 18 h. Mueller Hinton Broth (MHB) was then used to wash and rinse the bacteria. The bacterial suspensions were then diluted to obtain concentrations of 10^7 CFU/ml for inoculations.
(§2) A modified version of the National Committee for Clinical Laboratory Standards (NCCLS) broth microdilution method ([Steinberg et al., 1997]) was used to determine the minimum inhibitory concentrations (MICs) of peptide and compared to that of nisin. Fifty microliters of two-fold serial dilutions of each peptide [0.98–250 μg/ml in 0.01% (v/v) acetic acid and 0.2% (w/v) bovine serum albumin (BSA, Sigma-Aldrich, MO, United States)], were incubated with 50 μl of bacterial suspensions (approximately 10^7 CFU/ml) at 37°C for 24 h in a shaking incubator. MICs were taken as the lowest concentration of peptide at which growth was inhibited as observed by visual inspection. Bacterial cultures without peptides and uncultured broth were used as positive and negative controls, respectively. Minimal bactericidal concentrations (MBCs) were determined using a colony count assay ([Clinical Laboratory Standards Institute [CLSI], 2015]). Fifty microliters of samples from each non-turbid well in the MIC determination experiment was plated on Mueller Hinton Agar (MHA) and colonies were observed after overnight incubation at 37°C. MBCs were designated as the least concentration showing no colony growth on the plate. All of experiments were performed in triplicate.

[2] = system: S. enterica serovar 4,5,12:i:- H1-025 (clinical isolate); assay: MIC/MBC, broth microdilution and colony count; assay type: cell-based, Salmonella enterica serovar 4,5,12:i:-; conditions: H1-025, urine, resistant Amp, Ctx, C, T, intermediate Cp, NA, SxT, broth microdilution, 37°C, 24 h
Protocol: as §1, §2

[3] = system: S. enterica serovar 4,5,12:i:- H2-050 (foodborne isolate); assay: MIC/MBC, broth microdilution and colony count; assay type: cell-based, Salmonella enterica serovar 4,5,12:i:-; conditions: H2-050, pork heart, resistant Amp, broth microdilution, 37°C, 24 h
Protocol: as §1, §2

[4] = system: S. enterica serovar 4,5,12:i:- H1-027 (clinical isolate); assay: MIC/MBC, broth microdilution and colony count; assay type: cell-based, Salmonella enterica serovar 4,5,12:i:-; conditions: H1-027, stool, resistant Amp, T, broth microdilution, 37°C, 24 h
Protocol: as §1, §2

[5] = system: S. enterica serovar 4,5,12:i:- H2-090 (foodborne isolate); assay: MIC/MBC, broth microdilution and colony count; assay type: cell-based, Salmonella enterica serovar 4,5,12:i:-; conditions: H2-090, pork intestine, resistant Amp, T, broth microdilution, 37°C, 24 h
Protocol: as §1, §2

[6] = system: S. enterica serovar 4,5,12:i:- H2-046 (foodborne isolate); assay: MIC/MBC, broth microdilution and colony count; assay type: cell-based, Salmonella enterica serovar 4,5,12:i:-; conditions: H2-046, pork heart, resistant Amp, T, intermediate Cp, broth microdilution, 37°C, 24 h
Protocol: as §1, §2

[7] = system: S. enterica serovar 4,5,12:i:- H2-072 (foodborne isolate); assay: MIC/MBC, broth microdilution and colony count; assay type: cell-based, Salmonella enterica serovar 4,5,12:i:-; conditions: H2-072, pork intestine, resistant Amp, Ctx, C, T, SxT, intermediate Cp, broth microdilution, 37°C, 24 h
Protocol: as §1, §2

[8] = system: S. enterica serovar 4,5,12:i:- H2-071 (foodborne isolate); assay: MIC/MBC, broth microdilution and colony count; assay type: cell-based, Salmonella enterica serovar 4,5,12:i:-; conditions: H2-071, pork heart, resistant Amp, Ctx, C, T, SxT, intermediate Cp, broth microdilution, 37°C, 24 h
Protocol: as §1, §2

[9] = system: S. enterica serovar 4,5,12:i:- H2-082 (foodborne isolate); assay: MIC/MBC, broth microdilution and colony count; assay type: cell-based, Salmonella enterica serovar 4,5,12:i:-; conditions: H2-082, pork intestine, resistant Amp, T, broth microdilution, 37°C, 24 h
Protocol: as §1, §2

[10] = system: S. enterica serovar Typhimurium ATCC 13311; assay type: cell-based, Salmonella enterica serovar Typhimurium
Protocol: In order to induce bacterial resistance to P7, S. enterica serovar Typhimurium ATCC 13311 were cultured for 10 serial passages in MHB in the presence of P7 in a series of concentrations ranging from 0.98 to 250 μg/ml ([Veldhuizen et al., 2013]). In each passage, 50 μl of bacterial samples at sublethal concentrations (the highest peptide concentration displaying 80% growth compared with growth in MHB) were used to determine MIC values by a broth microdilution assay.

| Substance | MIC [1] [µg/mL] | MIC [2] [µg/mL] | MIC [3] [µg/mL] | MIC [4] [µg/mL] | MIC [5] [µg/mL] | MIC [6] [µg/mL] | MIC [7] [µg/mL] | MIC [8] [µg/mL] | MIC [9] [µg/mL] | MIC ([10]; serial passage 1) [µg/mL] | MIC ([10]; serial passage 2) [µg/mL] | MIC ([10]; serial passage 3) [µg/mL] | MIC ([10]; serial passage 4) [µg/mL] | MIC ([10]; serial passage 5) [µg/mL] | MIC ([10]; serial passage 6) [µg/mL] | MIC ([10]; serial passage 7) [µg/mL] | MIC ([10]; serial passage 8) [µg/mL] | MIC ([10]; serial passage 9) [µg/mL] | MIC ([10]; serial passage 10) [µg/mL] | MIC ([10]; through all bacterial passages (10 serial passages)) [µg/mL] |
| --- | --- | --- | --- | --- | --- | --- | --- | --- | --- | --- | --- | --- | --- | --- | --- | --- | --- | --- | --- | --- |
| Nisin: authorized food preservative peptide, binds lipid II and forms membrane pores (ITSISLCTPGCKTGALMGCNMKTATCHCSIHVSK; cysteine pairing not given here; also: lantibiotic nisin-A; UniProt P13068 24-57, looked up) | >1000 | >1000 | >1000 | >1000 | >1000 | >1000 | >1000 | >1000 | >1000 |  |  |  |  |  |  |  |  |  |  |  |
| KIAKRIWKILRR-NH2 [P7] |  |  |  |  |  |  |  |  |  | 3.91 | 3.91 | 3.91 | 3.91 | 3.91 | 3.91 | 3.91 | 3.91 | 3.91 | 3.91 | 3.91 |
